Data from PubChem BioAssay AID328 (DTP/NCI, 2004).
Values joined by “and” are separate entries in the source; they are usually repeats but may differ in a detail not shown here. Equal values may be shown once. Inconclusive results and toxic doses are left out.

System: BDF1 mice, P388 leukemia ip, median survival T/C
Assay: NCI In Vivo Anticancer Drug Screen. Data for tumor model P388 Leukemia (intraperitoneal) in B6D2F1 (BDF1) mice
Conditions: endpoint: median survival time, higher = longer survival
Method in brief: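 Compound-treated tumour-bearing mice were compared with vehicle-treated controls. Survival was recorded, and the value is the treated-group measurement divided by the control-group measurement (T/C).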

[1] = dose: 50.0 mg/kg/injection, schedule: Q01DX009 (ip), vehicle: Klucel (hydroxypropylcellulose) (HPC)
[2] = dose: 50.0 mg/kg/injection, schedule: Q01DX009 (ip), vehicle: saline with Tween-80
[3] = dose: 100.0 mg/kg/injection, schedule: Q01DX009 (ip), vehicle: saline with Tween-80
[4] = dose: 200.0 mg/kg/injection, schedule: Q01DX009 (ip), vehicle: saline with Tween-80
[5] = dose: 100.0 mg/kg/injection, schedule: Q04DX003 (ip), vehicle: saline
[6] = dose: 100.0 mg/kg/injection, schedule: Q04DX003 (ip), vehicle: saline with Tween-80
[7] = dose: 200.0 mg/kg/injection, schedule: Q04DX003 (ip), vehicle: saline with Tween-80
[8] = dose: 400.0 mg/kg/injection, schedule: Q04DX003 (ip), vehicle: saline with Tween-80
[9] = dose: 12.5 mg/kg/injection, schedule: Q01DX009 (ip), vehicle: saline with Tween-80
[10] = dose: 50.0 mg/kg/injection, schedule: Q04DX003 (ip), vehicle: Klucel (hydroxypropylcellulose) (HPC)
[11] = dose: 100.0 mg/kg/injection, schedule: Q04DX003 (ip), vehicle: Klucel (hydroxypropylcellulose) (HPC)
[12] = dose: 200.0 mg/kg/injection, schedule: Q04DX003 (ip), vehicle: Klucel (hydroxypropylcellulose) (HPC)

O=C(O)c1c(C(=O)O)c(C(=O)O)c(C(=O)O)c(C(=O)O)c1C(=O)O
T/C (dose: 20.0 mg/kg/injection, schedule: Q01DX009 (ip), vehicle: saline): 107 % of control
T/C (dose: 40.0 mg/kg/injection, schedule: Q01DX009 (ip), vehicle: saline): 117 % of control
T/C (dose: 80.0 mg/kg/injection, schedule: Q01DX009 (ip), vehicle: saline): 98 % of control

C[C@]12C=CC(=O)C=C1CC[C@H]1[C@@H]3C[C@@H](O)[C@](O)(C(=O)CO)[C@@]3(C)C[C@H](O)[C@@]12F
T/C [1]: 100 % of control
T/C (dose: 132.0 mg/kg/injection, schedule: Q01DX009 (ip), vehicle: Klucel (hydroxypropylcellulose) (HPC)): 118 % of control
T/C (dose: 200.0 mg/kg/injection, schedule: Q01DX009 (ip), vehicle: Klucel (hydroxypropylcellulose) (HPC)): 113 % of control

O=C(/C=C/c1cccc(O)c1)c1ccccc1
T/C [2]: 91 % of control
T/C [3]: 99 % of control
T/C [4]: 101 % of control

[Cl][Hg][CH]1CCCC2OC(C(Cl)(Cl)Cl)OC21 (centres undefined)
T/C (dose: 0.2 mg/kg/injection, schedule: Q01DX001 (ip), vehicle: saline with Tween-80): 111 % of control
T/C (dose: 0.4 mg/kg/injection, schedule: Q01DX001 (ip), vehicle: saline with Tween-80): 109 % of control
T/C (dose: 0.78 mg/kg/injection, schedule: Q01DX001 (ip), vehicle: saline with Tween-80): 101 % of control
T/C (dose: 0.8 mg/kg/injection, schedule: Q01DX001 (ip), vehicle: saline with Tween-80): 109 % of control
T/C (dose: 1.6 mg/kg/injection, schedule: Q01DX001 (ip), vehicle: saline with Tween-80): 116 % of control

O=c1[nH]c(=O)n(O)c2nc[nH]c12
T/C (dose: 25.0 mg/kg/injection, schedule: Q04DX003 (ip), vehicle: saline): 100 % of control
T/C (dose: 37.5 mg/kg/injection, schedule: Q01DX001 (ip), vehicle: saline): 100 % of control
T/C (dose: 50.0 mg/kg/injection, schedule: Q04DX003 (ip), vehicle: saline): 100 % of control
T/C (dose: 75.0 mg/kg/injection, schedule: Q01DX001 (ip), vehicle: saline): 109 % of control
T/C (dose: 75.0 mg/kg/injection, schedule: Q01DX009 (ip), vehicle: saline): 90 % of control
T/C [5]: 118 % of control

Cc1cccc(C)c1NC(=O)c1ccccc1Cl
T/C [6]: 113 % of control
T/C [7]: 109 % of control
T/C [8]: 104 % of control

COc1cc2cc[n+](C)c(Cc3ccccc3)c2cc1OC
T/C [9]: 100 % of control
T/C [1]: 159 % of control
T/C (dose: 50.0 mg/kg/injection, schedule: Q04DX003 (ip), vehicle: saline with Tween-80): 113 % of control
T/C [6]: 90 % of control

OCCNCCNCC[OH2+].OCCNCCNCC[OH2+].[Cu+2].[O-][Cl+3]([O-])([O-])[O-]
T/C (dose: 12.5 mg/kg/injection, schedule: Q01DX009 (ip), vehicle: other): 99 % of control
T/C (dose: 25.0 mg/kg/injection, schedule: Q01DX009 (ip), vehicle: other): 115 % of control
T/C (dose: 50.0 mg/kg/injection, schedule: Q01DX009 (ip), vehicle: other): 109 % of control

COc1ccc(Cc2c3ccccc3cc[n+]2C)cc1Oc1ccc(Cc2c3ccccc3cc[n+]2C)cc1
T/C (dose: 0.78 mg/kg/injection, schedule: Q01DX009 (ip), vehicle: saline): 100 % of control
T/C (dose: 1.56 mg/kg/injection, schedule: Q01DX009 (ip), vehicle: saline): 101 % of control

COC(=O)/C=C/CBr
T/C (dose: 2.5 mg/kg/injection, schedule: Q01DX010 (ip), vehicle: saline): 110 % of control
T/C (dose: 5.0 mg/kg/injection, schedule: Q01DX010 (ip), vehicle: saline): 110 % of control
T/C (dose: 10.0 mg/kg/injection, schedule: Q01DX010 (ip), vehicle: saline): 110 % of control
T/C (dose: 20.0 mg/kg/injection, schedule: Q01DX010 (ip), vehicle: saline): 115 % of control

Cc1cc(C(=O)c2ccccn2)c2cccc(C(F)(F)F)c2n1
T/C [9]: 95 % of control
T/C [6]: 95 % of control
T/C [4]: 86 % of control
T/C [7]: 90 % of control
T/C [8]: 90 % of control

Oc1ccc2ccccc2c1C1=NNc2n[nH]c(=S)n2N1
T/C (dose: 12.5 mg/kg/injection, schedule: Q04DX003 (ip), vehicle: Klucel (hydroxypropylcellulose) (HPC)): 104 % of control
T/C (dose: 25.0 mg/kg/injection, schedule: Q04DX003 (ip), vehicle: Klucel (hydroxypropylcellulose) (HPC)): 108 % of control
T/C [10]: 104 % of control

COc1cccc(/C=C(/SC)S(C)=O)c1OC (centres undefined)
T/C [5]: 106 % of control
T/C (dose: 200.0 mg/kg/injection, schedule: Q04DX003 (ip), vehicle: saline): 115 % of control
T/C (dose: 400.0 mg/kg/injection, schedule: Q04DX003 (ip), vehicle: saline): 120 % of control

c1ccc2c(c1)nnn1c3ncccc3nc21
T/C [2]: 115 % of control

O=NN(CCCl)C(=O)NC1CCC(NC(=O)N(CCCl)N=O)CC1 (centres undefined)
T/C (dose: 11.0 mg/kg/injection, schedule: Q04DX003 (ip), vehicle: saline with Tween-80): 229 % of control
T/C (dose: 13.0 mg/kg/injection, schedule: Q01DX009 (ip), vehicle: saline with Tween-80): 187 % of control
T/C (dose: 20.0 mg/kg/injection, schedule: Q01DX009 (ip), vehicle: saline with Tween-80): 250 % of control and 272 % of control
T/C (dose: 22.0 mg/kg/injection, schedule: Q04DX003 (ip), vehicle: saline with Tween-80): 209 % of control and 220 % of control
T/C (dose: 30.0 mg/kg/injection, schedule: Q01DX009 (ip), vehicle: saline with Tween-80): 272 % of control
T/C (dose: 44.0 mg/kg/injection, schedule: Q01DX009 (ip), vehicle: saline with Tween-80): 272 % of control
T/C (dose: 44.0 mg/kg/injection, schedule: Q04DX003 (ip), vehicle: saline with Tween-80): 272 % of control
T/C (dose: 66.0 mg/kg/injection, schedule: Q01DX009 (ip), vehicle: saline with Tween-80): 240 % of control and 272 % of control
T/C (dose: 88.0 mg/kg/injection, schedule: Q04DX003 (ip), vehicle: saline with Tween-80): 272 % of control and 300 % of control
T/C [3]: 224 % of control and 192 % of control
T/C (dose: 133.0 mg/kg/injection, schedule: Q04DX003 (ip), vehicle: saline with Tween-80): 300 % of control
T/C (dose: 150.0 mg/kg/injection, schedule: Q01DX009 (ip), vehicle: saline with Tween-80): 176 % of control
T/C [4]: 115 % of control
T/C [7]: 300 % of control
T/C (dose: 300.0 mg/kg/injection, schedule: Q04DX003 (ip), vehicle: saline with Tween-80): 210 % of control

O=C(Cc1ccc([N+](=O)[O-])cc1)c1ccc(O)cc1O
T/C [10]: 86 % of control
T/C [11]: 95 % of control
T/C [12]: 90 % of control

CCOC(=O)C1=C(N)n2c(s/c(=C/c3ccc(N(C)C)cc3)c2=O)=C(C(=O)OCC)C1c1ccc(N(C)C)cc1 (centres undefined)
T/C (dose: 50.0 mg/kg/injection, schedule: Q01DX005 (ip), vehicle: saline with Tween-80): 101 % of control
T/C (dose: 100.0 mg/kg/injection, schedule: Q01DX005 (ip), vehicle: saline with Tween-80): 97 % of control
T/C (dose: 200.0 mg/kg/injection, schedule: Q01DX005 (ip), vehicle: saline with Tween-80): 99 % of control

COC(=O)C1=C(\N2CCOCC2)CCCCC/C=C\1C(=O)OC
T/C [2]: 100 % of control
T/C [4]: 100 % of control

N#CC(C#N)=Cc1ccc(C=C(C#N)C#N)cc1
T/C (dose: 12.5 mg/kg/injection, schedule: Q01DX009 (ip), vehicle: Klucel (hydroxypropylcellulose) (HPC)): 100 % of control
T/C (dose: 25.0 mg/kg/injection, schedule: Q01DX009 (ip), vehicle: Klucel (hydroxypropylcellulose) (HPC)): 95 % of control
T/C [1]: 90 % of control
T/C [11]: 100 % of control
T/C [12]: 104 % of control
T/C (dose: 400.0 mg/kg/injection, schedule: Q04DX003 (ip), vehicle: Klucel (hydroxypropylcellulose) (HPC)): 121 % of control

CC(C)CC(NC(=O)C(C)N)C(=O)NCC(=O)O (centres undefined)
T/C (dose: 50.0 mg/kg/injection, schedule: Q01DX005 (ip), vehicle: saline): 100 % of control
T/C (dose: 100.0 mg/kg/injection, schedule: Q01DX005 (ip), vehicle: saline): 91 % of control
T/C (dose: 200.0 mg/kg/injection, schedule: Q01DX005 (ip), vehicle: saline): 103 % of control

C=CC(=O)[O][Pb]([CH3])([CH3])[CH3]
T/C (dose: 0.75 mg/kg/injection, schedule: Q01DX009 (ip), vehicle: saline): 98 % of control
T/C (dose: 1.5 mg/kg/injection, schedule: Q01DX009 (ip), vehicle: saline): 96 % of control

C[N+](C)(C)CN1C(=O)c2ccccc2C1=O
T/C (dose: 50.0 mg/kg/injection, schedule: Q01DX009 (ip), vehicle: saline): 87 % of control
T/C (dose: 100.0 mg/kg/injection, schedule: Q01DX009 (ip), vehicle: saline): 100 % of control
